Assay results: US20050209207A1, “Aerosol formulations containing esters of 3,17-dihydroxy oestratriene derivatives for pulmonary delivery” (priority 2002, published 2005)
Read-outs that look alike come from different tables or passages of the source.

What was measured:
[1] = transdermal patches; cited from earlier work
[2] = cited from earlier work
[3] = intranasal aqueous solution with dimethyl-β-cyclodextrin, compared to the IV route; cited from earlier work
[4] = porous particles, Andersen cascade Impaction; cited from earlier work
[5] = 0.1% w/v drug, HFA134a
[6] = Andersen Cascade Impactor (ACI) deposition studies of HFA solution pMDIs; assay type: physicochemical
Method: All impaction studies were conducted with formulations contained in cut edge anodised aluminium cans fitted with 50 μl or 100 μl valves. The studies were carried out using an Andersen Cascade Impactor (ACI) fitted with a USP XXII metal throat entry port. The ACI was operated at a flow rate of 28.3±2 l min^−1. All solution HFA formulations were discharged into the ACI through an actuator having an orifice diameter of 0.22 mm. Deposition of the drug on each ACI plate was determined by high pressure liquid chromatography (HPLC). MMAD values and corresponding geometric standard deviations (GSD) were calculated from plots of the cumulative percentage undersize of drug collected on each ACI plate (probit scale), against the upper cut off diameter for each respective ACI plate (log 10 scale).

[7] = 0.1% w/v (50 μg/dose), 5% w/w ethanol, 0.1% w/w glycerol, HFA134a, ten shots

**Q.** With 17β-Oestradiol as the compound, how does the “mean serum oestradiol levels” value [1] read?
**A.** 70 to 90 pg/mL

**Q.** What about the peak plasma concentration ([2]; sublingual, 0.25 mg) of the same compound?
**A.** 294 pg/mL

**Q.** What about the peak plasma concentration ([2]; sublingual, 0.5 mg) of the same compound?
**A.** 245 pg/mL

**Q.** And the peak plasma concentration ([2]; sublingual, 1.0 mg)?
**A.** 451 pg/mL

**Q.** And the “time to peak plasma concentration” value ([2]; sublingual, 0.25, 0.5 and 1.0 mg)?
**A.** ≤ 1 h

**Q.** And the 17β-oestradiol levels ([2]; sublingual, after 6 hours)?
**A.** less than 60 pg/ml

**Q.** What about the bioavailability [3] of the same compound?
**A.** approximately 65%

**Q.** What about the fine particle fraction [4] of the same compound?
**A.** approximately 33%

**Q.** With `C[C@]12CC[C@@H]3c4ccc(OC(=O)c5ccccc5)cc4CC[C@H]3[C@@H]1CC[C@@H]2O` [Formulation 3-Benzoate] as the compound, how does the Solubility ([5]; 13% w/w ethanol, no glycerol) read?
**A.** Insoluble

**Q.** For `C[C@]12CC[C@@H]3c4ccc(O)cc4CC[C@H]3[C@@H]1CC[C@@H]2OC(=O)CCC1CCCC1` [Formulation 17-Cypionate], which Solubility ([5]; 5% w/w ethanol, 0.1% w/w glycerol) is on record?
**A.** Insoluble

**Q.** What does the source list for `CCCCCCC(=O)O[C@H]1CC[C@H]2[C@@H]3CCc4cc(O)ccc4[C@H]3CC[C@]12C` [Formulation 17-Enanthate, β-oestradiol enanthate]?
**A.** GSD [6, 7]: 1.7; MMAD [6, 7]: 1.5 μm; fine particle dose (FPD) [6, 7]: 38.8 µg; fine particle fraction (FPF) [6, 7]: 78.5%

**Q.** Which MMAD ([6]; 200 μg/dose (0.4% w/v), 0% w/w ethanol, HFA 134a) does the source give for “β-oestradiol-3,17-dipropionate [β-oestradiol 3,17-dipropionate]” here?
**A.** 0.90 μm

**Q.** What about the MMAD ([6]; 200 μg/dose (0.4% w/v), 2% w/w ethanol, HFA 134a) of the same compound?
**A.** 1.50 μm

**Q.** What about the MMAD ([6]; 200 μg/dose (0.4% w/v), 5% w/w ethanol, HFA 134a) of the same compound?
**A.** 1.50 μm

**Q.** And the MMAD ([6]; 500 μg/dose (1% w/v), 5% w/w ethanol, HFA 134a)?
**A.** 1.90 μm
